In ChEMBL document CHEMBL1141332, “Cytotoxic metabolites from an Indonesian sponge Lendenfeldia sp” (J Nat Prod, 2007):

Assays:
Type in all cases: functional
MOLT-4 = experiment: Cytotoxicity against human MOLT4 cells
HT-29 = experiment: Cytotoxicity against human HT29 cells
SK-MEL-28 = experiment: Cytotoxicity against human SK-MEL-28 cells
T47D = experiment: Cytotoxicity against human T47D cells
SNB-19 = experiment: Cytotoxicity against human SNB19 cells; settings: read-out: Log LC50 (the source's name) (converted)
PC-3 = experiment: Cytotoxicity against human PC3 cells
SF-539 = experiment: Cytotoxicity against human SF539 cells
SW-620 = experiment: Cytotoxicity against human SW620 cells
SF-268 = experiment: Cytotoxicity against human SF268 cells
M14 = experiment: Cytotoxicity against human M14 cells
OVCAR-3 = experiment: Cytotoxicity against human OVCAR-3 cells
[1] = Cytotoxicity against human HS578T cells; settings: Hs-578T
SR = experiment: Cytotoxicity against human SR cells
TK-10 = experiment: Cytotoxicity against human TK10 cells
HCT-15 = experiment: Cytotoxicity against human HCT15 cells
NCI/ADR-RES = experiment: Cytotoxicity against human NCI/ADR-RES cells
NCI-H23 = experiment: Cytotoxicity against human NCI-H23 cells
SK-MEL-2 = experiment: Cytotoxicity against human SK-MEL-2 cells
K562 = experiment: Cytotoxicity against human K562 cells
NCI-H522 = experiment: Cytotoxicity against human NCI-H522 cells
IGROV-1 = experiment: Cytotoxicity against human IGROV1 cells
UACC-62 = experiment: Cytotoxicity against human UACC62 cells
HCT-116 = experiment: Cytotoxicity against human HCT116 cells
MCF7 = experiment: Cytotoxicity against human MCF7 cells
ACHN = experiment: Cytotoxicity against human ACHN cells
OVCAR-4 = experiment: Cytotoxicity against human OVCAR4 cells
MDA-MB-231 = experiment: Cytotoxicity against human MDA-MB-231 cells
SK-MEL-5 = experiment: Cytotoxicity against human SK-MEL-5 cells
BT-549 = experiment: Cytotoxicity against human BT549 cells
NCI-H460 = experiment: Cytotoxicity against human NCI-H460 cells
SNB-75 = experiment: Cytotoxicity against human SNB75 cells
NCI-H322M = experiment: Cytotoxicity against human NCI-H322M cells
UACC-257 = experiment: Cytotoxicity against human UACC257 cells
786-0 = experiment: Cytotoxicity against human 786-0 cells
HOP-62 = experiment: Cytotoxicity against human HOP62 cells
SF-295 = experiment: Cytotoxicity against human SF295 cells
U-251 = experiment: Cytotoxicity against human U251cells
LOX IMVI = experiment: Cytotoxicity against human LOX IMVI cells
EKVX = experiment: Cytotoxicity against human EKVX cells
UO-31 = experiment: Cytotoxicity against human UO31 cells
A498 = experiment: Cytotoxicity against human A498 cells
KM12 = experiment: Cytotoxicity against human KM12 cells
NCI-H226 = experiment: Cytotoxicity against human NCI-H226 cells
OVCAR-8 = experiment: Cytotoxicity against human OVCAR8 cells
RXF 393 = experiment: Cytotoxicity against human RXF393 cells
HOP-92 = experiment: Cytotoxicity against human HOP92 cells
[2] = read-out: Log LC50 (the source's name) (converted)

CC1OC(=O)[C@H]2[C@H]1[C@@H](O)C[C@H]1[C@]3(C)CC[C@H]4C(C)(C)CCC[C@]4(C)[C@H]3C[C@@H](O)[C@]21C (stereo partly specified)
GI50 (MOLT-4): 4.79 µM
CC50 (MOLT-4; [2]): > 100 µM
TGI (MOLT-4; read-out: Log TGI (converted)): 20.9 µM
GI50 (HT-29): 17.4 µM
CC50 (HT-29; [2]): 83.2 µM
TGI (HT-29; read-out: Log TGI (converted)): 38 µM
GI50 (SK-MEL-28): 20 µM
CC50 (SK-MEL-28; [2]): 66.1 µM
TGI (SK-MEL-28; read-out: Log TGI (converted)): 36.3 µM
GI50 (T47D): 24.5 µM
LC50 (T47D): > 100 µM
TGI (T47D; read-out: Log TGI (converted)): 63.1 µM
CC50 (SNB-19): 17 µM
GI50 (PC-3): 17 µM
LC50 (PC-3): > 100 µM
TGI (PC-3; read-out: Log TGI (converted)): 55 µM
GI50 (SF-539): 19.1 µM
CC50 (SF-539; [2]): 67.6 µM
TGI (SF-539; read-out: Log TGI (converted)): 36.3 µM
GI50 (SW-620): 12 µM
CC50 (SW-620; [2]): 52.5 µM
TGI (SW-620; read-out: Log TGI (converted)): 25.1 µM
GI50 (SF-268): 22.4 µM
CC50 (SF-268; [2]): > 100 µM
TGI (SF-268; read-out: Log TGI (converted)): 49 µM
GI50 (M14): 19.1 µM
CC50 (M14; [2]): 69.2 µM
TGI (M14; read-out: Log TGI (converted)): 36.3 µM
GI50 (OVCAR-3): 11.5 µM
CC50 (OVCAR-3; [2]): 60.3 µM
TGI (OVCAR-3; read-out: Log TGI (converted)): 26.3 µM
GI50 [1]: 19.1 µM
LC50 [1]: > 100 µM
TGI ([1]; read-out: Log TGI (converted)): 53.7 µM
GI50 (SR): 8.51 µM
CC50 (SR; [2]): > 100 µM
TGI (SR; read-out: Log TGI (converted)): 35.5 µM
GI50 (TK-10): 30.2 µM
LC50 (TK-10): > 100 µM
TGI (TK-10; read-out: Log TGI (converted)): 79.4 µM
GI50 (HCT-15): 16.2 µM
CC50 (HCT-15; [2]): 60.3 µM
TGI (HCT-15; read-out: Log TGI (converted)): 31.6 µM
GI50 (NCI/ADR-RES): 18.6 µM
LC50 (NCI/ADR-RES): 83.2 µM
TGI (NCI/ADR-RES; read-out: Log TGI (converted)): 39.8 µM
GI50 (NCI-H23): 20.4 µM
CC50 (NCI-H23; [2]): 67.6 µM
TGI (NCI-H23; read-out: Log TGI (converted)): 37.2 µM
GI50 (SK-MEL-2): 25.1 µM
CC50 (SK-MEL-2; [2]): > 100 µM
TGI (SK-MEL-2; read-out: Log TGI (converted)): 51.3 µM
GI50 (K562): 29.5 µM
CC50 (K562; [2]): > 100 µM
TGI (K562; read-out: Log TGI (converted)): 55 µM
GI50 (NCI-H522): 19.5 µM
CC50 (NCI-H522; [2]): 77.6 µM
TGI (NCI-H522; read-out: Log TGI (converted)): 38.9 µM
GI50 (IGROV-1): 30.9 µM
CC50 (IGROV-1; [2]): > 100 µM
TGI (IGROV-1; read-out: Log TGI (converted)): 81.3 µM
GI50 (UACC-62): 19.5 µM
CC50 (UACC-62; [2]): 97.7 µM
TGI (UACC-62; read-out: Log TGI (converted)): 43.7 µM
GI50 (HCT-116): 11.2 µM
CC50 (HCT-116; [2]): 47.9 µM
TGI (HCT-116; read-out: Log TGI (converted)): 23.4 µM
GI50 (MCF7): 34.7 µM
LC50 (MCF7): > 100 µM
TGI (MCF7; read-out: Log TGI (converted)): > 100 µM
GI50 (ACHN): 18.2 µM
LC50 (ACHN): 56.2 µM
TGI (ACHN; read-out: Log TGI (converted)): 31.6 µM
GI50 (OVCAR-4): 20.9 µM
CC50 (OVCAR-4; [2]): > 100 µM
TGI (OVCAR-4; read-out: Log TGI (converted)): 60.3 µM
GI50 (MDA-MB-231): 19.1 µM
LC50 (MDA-MB-231): 87.1 µM
TGI (MDA-MB-231; read-out: Log TGI (converted)): 40.7 µM
GI50 (SK-MEL-5): 13.5 µM
CC50 (SK-MEL-5; [2]): 52.5 µM
TGI (SK-MEL-5; read-out: Log TGI (converted)): 26.3 µM
GI50 (BT-549): 17 µM
LC50 (BT-549): 64.6 µM
TGI (BT-549; read-out: Log TGI (converted)): 33.1 µM
GI50 (NCI-H460): 20.9 µM
CC50 (NCI-H460; [2]): 89.1 µM
TGI (NCI-H460; read-out: Log TGI (converted)): 42.7 µM
GI50 (SNB-75): 20 µM
CC50 (SNB-75; [2]): > 100 µM
TGI (SNB-75; read-out: Log TGI (converted)): 47.9 µM
GI50 (NCI-H322M): 31.6 µM
CC50 (NCI-H322M; [2]): > 100 µM
TGI (NCI-H322M; read-out: Log TGI (converted)): 93.3 µM
GI50 (UACC-257): 28.2 µM
CC50 (UACC-257; [2]): > 100 µM
TGI (UACC-257; read-out: Log TGI (converted)): 83.2 µM
GI50 (786-0): 15.8 µM
CC50 (786-0; [2]): 56.2 µM
TGI (786-0; read-out: Log TGI (converted)): 30.2 µM
GI50 (HOP-62): 15.1 µM
CC50 (HOP-62; [2]): 55 µM
TGI (HOP-62; read-out: Log TGI (converted)): 28.8 µM
GI50 (SF-295): 19.5 µM
CC50 (SF-295; [2]): > 100 µM
TGI (SF-295; read-out: Log TGI (converted)): 50.1 µM
GI50 (U-251): 17 µM
CC50 (U-251; [2]): 61.7 µM
TGI (U-251; read-out: Log TGI (converted)): 32.4 µM
GI50 (LOX IMVI): 17.4 µM
CC50 (LOX IMVI; [2]): 56.2 µM
TGI (LOX IMVI; read-out: Log TGI (converted)): 30.9 µM
GI50 (EKVX): 23.4 µM
CC50 (EKVX; [2]): 89.1 µM
TGI (EKVX; read-out: Log TGI (converted)): 45.7 µM
GI50 (UO-31): 20.4 µM
LC50 (UO-31): 75.9 µM
TGI (UO-31; read-out: Log TGI (converted)): 39.8 µM
GI50 (A498): 18.6 µM
LC50 (A498): 72.4 µM
TGI (A498; read-out: Log TGI (converted)): 37.2 µM
GI50 (KM12): 25.1 µM
CC50 (KM12; [2]): > 100 µM
TGI (KM12; read-out: Log TGI (converted)): 69.2 µM
GI50 (NCI-H226): 20 µM
CC50 (NCI-H226; [2]): 87.1 µM
TGI (NCI-H226; read-out: Log TGI (converted)): 41.7 µM
GI50 (OVCAR-8): 25.1 µM
CC50 (OVCAR-8; [2]): > 100 µM
TGI (OVCAR-8; read-out: Log TGI (converted)): 63.1 µM
GI50 (RXF 393): 14.8 µM
LC50 (RXF 393): 58.9 µM
TGI (RXF 393; read-out: Log TGI (converted)): 29.5 µM
GI50 (HOP-92): 17 µM
CC50 (HOP-92; [2]): 93.3 µM
TGI (HOP-92; read-out: Log TGI (converted)): 39.8 µM
